These results are taken from patent US5506134A, “Hypridoma and monoclonal antibody which inhibits blood coagulation tissue factor/factor VIIa complex” (Corvas International, Inc., priority 1991, dated 1996).

The experiment addresses T1, tissue factor:factor VIIa complex (tissue factor on human bladder carcinoma J-82 cells) (Homo sapiens, UniProt P08709).
T1 construct: endogenous in cells; host or cells: J-82 (ATCC HTB-1) human bladder carcinoma cells: source of the tissue factor only
The experiment is described as follows: Factor X activation chromogenic substrate assay (J-82 cells as source of tissue factor, Spectrozyme Xa). The format is biochemical. The note with it: PPACK 1 μM; positive control; 30 min at room temperature, OD-405; read-out: Percent Inhibition of F.X Activation. The source says:
The second screening was used to evaluate the ability of isolated antibodies to inhibit tissue factor catalyzed factor VII activity as reflected by the conversion of factor X to factor Xa. The human bladder carcinoma cell line J-82 (ATCC HTB-1) expresses cell surface-associated tissue factor and is used as the source of tissue factor and phospholipids. A chromogenic substrate for factor Xa is used, which develops color proportional to the amount of factor VIIa activity. Conversely, color is not developed if factor VII activity is blocked. The assay is performed as follows. J-82 cells are suspended in tris-buffered saline at a concentration of 1×10^5 cells per mL. Fifty microliters of cell suspension is added to individual wells of a 96-well polystyrene microliter plate. Fifty microliters of hybridoma culture supernatant diluted at least 1:10 is added to appropriate wells followed by 25 μL of 20 mM CaCl2. Negative control is irrelevant hybridoma culture supernatant (such as anti-tPA supernatant) and positive control is 1 μM PPACK (d-phenylalanine-proline-arginine-chloromethylkefone). Twenty-five microliters of 90 nM factor X and 50 λL of substrate Spectrozyme Xa are added to each well. Following thirty minute incubation at room temperature, OD-405 is determined. […]

T1 sequence (P08709 213-466 limits assumed): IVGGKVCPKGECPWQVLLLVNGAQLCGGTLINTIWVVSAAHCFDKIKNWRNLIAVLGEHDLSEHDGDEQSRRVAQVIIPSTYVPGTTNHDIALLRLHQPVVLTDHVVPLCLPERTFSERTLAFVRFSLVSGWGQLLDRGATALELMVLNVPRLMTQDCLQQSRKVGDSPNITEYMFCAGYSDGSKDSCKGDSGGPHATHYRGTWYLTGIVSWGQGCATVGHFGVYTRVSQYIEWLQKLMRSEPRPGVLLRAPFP
T1 sequence (P08709 61-212 limits assumed): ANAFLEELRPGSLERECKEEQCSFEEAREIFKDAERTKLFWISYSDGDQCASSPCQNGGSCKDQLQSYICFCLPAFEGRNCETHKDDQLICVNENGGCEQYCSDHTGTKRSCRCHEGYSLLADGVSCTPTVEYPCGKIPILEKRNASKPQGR
T1 sequence (P13726 33-295 partner): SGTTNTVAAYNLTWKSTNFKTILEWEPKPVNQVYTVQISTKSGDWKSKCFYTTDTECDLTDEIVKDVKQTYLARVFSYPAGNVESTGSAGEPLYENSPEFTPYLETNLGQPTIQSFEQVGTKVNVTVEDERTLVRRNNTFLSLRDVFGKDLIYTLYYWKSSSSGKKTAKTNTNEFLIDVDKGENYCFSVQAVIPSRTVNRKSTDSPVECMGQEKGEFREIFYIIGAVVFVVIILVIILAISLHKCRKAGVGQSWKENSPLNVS

The term inhibition denotes how much of the control response was suppressed. As to `N=C(N)NCCC[C@H](NC(=O)[C@@H]1CCCN1C(=O)[C@H](N)Cc1ccccc1)C(=O)CCl` [PPACK, d-phenylalanine-proline-arginine-chloromethylkefone], the inhibition at 1 µM came to 100%.
